Reference: paper PMC9658316, “Discovery of Mitochondrial Complex I Inhibitors as Anticancer and Radiosensitizer Drugs Based on Compensatory Stimulation of Lactate Release” (Cancers, 2022)

Legend:
intact CT26 cancer cells = experiment: Seahorse basal OCR and ECAR in intact (non-permeabilized) CT26 cancer cells; assay type: cell-based, mouse; settings: for restoration of OCR / OXPHOS activity in cells exposed to aa compound: intact CT26 cells exposed to aa
Method: (§1) L-lactate concentration was measured in a semi-automated manner using CMA Microdialysis AB enzymatic assay and a CMA 600 analyzer (Aurora Borealis, Schoonebeek, The Netherlands) as previously described. Briefly, cells (2 × 10^5 cells per well; 3 wells/condition) were seeded in 12-well plates with 2 mL of their routine culture medium. After 24 h, medium was replaced by 500 µL of DMEM containing 10 mmol/L D-glucose and supplemented with 2 mmol/L L-glutamine and 10% dialyzed FBS (Sigma-Aldrich), in the presence of the compounds or vehicle (DMSO). The initial concentration of L-lactate in the experimental medium was also assessed by including control wells containing only cell culture medium (no cells) on each plate. After incubation for 24 h, extracellular media were collected and deproteinized by centrifugation (15 min, 10,000 rpm, 4 °C) in 10 kDa cut-off filter tubes (VWR, Avantor, Leuven, Belgium). Differences in L-lactate concentrations between control and treated cells were calculated and normalized by the protein content in each well and expressed in µmol/h/mg protein. Oxygen-consumption rate (OCR) was measured using the Seahorse XF96 plate reader as previously reported. Briefly, cells (2 × 10^4 cells per well) were first permeabilized with 1 nM Seahorse XF Plasma Membrane Permeabilizer (#102504-100; Agilent, Machelen, Belgium) and respiration was stimulated by adding 10 mM pyruvate, 5 mM malate, and 2 mM ADP. After baseline OCR determination, compounds were added (to inhibit complex I) followed by 10 mM succinate to fuel complex II and rescue the electron transport chain. In some experiments, the effects of selected hits on basal OCR were evaluated in intact cells (including in the presence of MCT1/2 inhibitor AR-C155858 [29] or methylpyruvate). OCR data were normalized according to protein content in each well.
Since other lactate transporters could be involved, we also used methylpyruvate which can bypass the need for a mitochondrial carrier and mimic the result of lactate oxidation by a mitochondrial LDH or ensure the delivery of pyruvate into the mitochondria matrix. […] In the same experiments carried out on non-permeabilized cancer cells, the extent of basal OCR inhibition in response to 10 µM aa was similar to that observed with 100 nM IACS-010759 (−52 ± 5% and −45 ± 6%, respectively) and mirrored by an increase in extracellular acidification rate (ECAR) (+36 ± 11% and +29 ± 9%, respectively).

mitochondrial complex I = mitochondrial complex I (Mus musculus, UniProt P03888+Q91WD5+Q9DC70); experiment: Seahorse OCR in permeabilized CT26 cancer cells, mitochondrial complex I inhibition (Assay #2); assay type: cell-based; settings: for IC50: pyruvate/malate, tested at 1 and 10 µM, read-out: OCR inhib. (IC50); for significant inhibition of complex I: up to 10 µM
Method: as §1
(A–D). Graphs depict changes in O2 consumption rate (OCR) measured with the Seahorse technology on permeabilized CT26 cancer cells upon successive addition of pyruvate/malate, the indicated inhibitor and succinate. […] (E,F).

[1] = tested on: colorectal CT26 cancer cells; experiment: Compound-induced L-lactate release (Assay #1), CT26; assay type: cell-based, mouse; settings: 10 µM; for [LAC] increase: 24 h exposure, L-lactate secretion above basal release
Method: as §1
Figure 3 Compound-induced L-lactate release (Assay #1). Culture medium was collected after 24 h exposure to the indicated compounds (10 µM) and the amount of extracellular L-lactate release was determined in a semi-automated manner; dose-dependent effects of complex I inhibitor IACS are shown on the right (shaded bars). Bar graph depicts the extent of L-lactate secretion above the basal release as determined in the absence of any compound (n = 3, ** p < 0.01 for increased L-lactate release vs. reference compound aa).

3D tumor CT26 spheroids = experiment: Inhibition of 3D tumor spheroid growth (Assay #3); assay type: cell-based, mouse; settings: CT26 spheroids, day 10
Method: Spheroids were prepared by seeding 1500 cells/well in Ultra-Low Attachment 96-well plate (Corning, Merck, Hoeilaart, Belgium) in DMEM supplemented with 10% heat-inactivated FBS. Inhibitors were added on day 4 (mean diameter of spheroids: 300 µm) and renewed every 3 days. Spheroid growth was monitored using live-cell phase contrast microscope (Axio Observer, Zeiss, Zaventem, Belgium); spheroid area, density and morphology were measured using ImageJ software. Confocal fluorescence microscopy (LSM510, Zeiss, Zaventem, Belgium) was used for detecting pimonidazole immunostaining as previously reported. Spheroids from a same experiment were imaged with the same gain and exposure settings. In some experiments, OXPHOSi treatment was combined with irradiation using a ^137Cs γ-irradiator (IBL-637; CIS-BioInternational, Saclay, France) as previously described.
Figure 5 Inhibition of 3D tumor spheroid growth (Assay #3). […] Drug exposure without (A) or with irradiation (B) was associated with a significant reduction in spheroid sizes vs. untreated spheroids (not shown).

| SMILES | IC50 (mitochondrial complex I) [µM] | [LAC] increase [1] [µmol/h/mg] | further results |
| --- | --- | --- | --- |
| Cc1n[nH]c(C)c1Cc1sc2c(c1C(=O)N1C[C@H](O)CO1)c(=O)n(C)c(=O)n2CC(C)C [AR-C155858] |  |  | restoration of OCR / OXPHOS activity in cells exposed to aa compound (intact CT26 cancer cells): failed to restore OCR |
| Cc1cc(C)cc(Cn2nnc(C(N)=O)c2N)c1 [ap] | > 10 | ~0 |  |
| Nc1c(C(=O)O)nnn1Cc1cccc(NC(=O)c2ccc(OC(F)(F)F)cc2)c1 [bb] | > 10 | ~0 |  |
| NC(=O)c1cn(Cc2cc(Cl)c(C(=O)c3ccc(Cl)cc3)c(Cl)c2)nn1 [as] | > 10 | ~2 | significant inhibition of complex I (mitochondrial complex I): did not show significant inhibition of complex I |
| O=C(O)c1cn(Cc2cc(Cl)c(C(=O)c3ccc(Cl)cc3)c(Cl)c2)nn1 [ar] | > 10 | ~0 |  |
| NC(=O)c1nnn(Cc2cc(Cl)c(C(=O)c3ccccc3)c(Cl)c2)c1N [ab] | ~10 | ~2 |  |
| Cc1cccc(C(=O)c2c(Cl)cc(Cn3nnc(C(N)=O)c3N)cc2Cl)c1 [ad] | ~10 | ~2 |  |
| Nc1c(C(=O)O)nnn1Cc1cccc(N2CCOCC2)c1 [bd] | > 10 | ~0 |  |
| NC(=O)c1nnn(Cc2cc(Cl)c(CN3CCOCC3)c(Cl)c2)c1N [ai] | > 10 | ~2 | significant inhibition of complex I (mitochondrial complex I): did not show significant inhibition of complex I |
| Nc1c(C(=O)O)nnn1Cc1ccc(NC(=O)c2ccc(Cl)cc2)cc1 [ba] | > 10 | ~0 |  |
| NC(=O)c1nnn(Cc2cc(Cl)c(Cc3ccc(C(F)(F)F)cc3)c(Cl)c2)c1N [compound al] | > 10 | ~0 |  |
| NC(=O)c1nnn(Cc2cc(F)c(C(=O)c3ccc(Cl)cc3)c(F)c2)c1N [an] | ~10 | ~4 | spheroid growth inhibition compared with reference compound aa (3D tumor CT26 spheroids): inhibited spheroid growth to the same extent as compound aa; L-lactate release compared with reference compound aa ([1]; 24 h): more potent inducers of L-lactate release |
| COC(=O)C(C)=O [Methylpyruvate, methylpyruvate] |  |  | restoration of OCR / OXPHOS activity in cells exposed to aa compound (intact CT26 cancer cells): failed to restore OXPHOS activity |
| NC(=O)c1nnn(Cc2cc(Cl)c(C(=O)c3ccc(OC(F)(F)F)cc3)c(Cl)c2)c1N [af] | ~10 | ~2 |  |
| COc1ccc(C(=O)c2c(Cl)cc(Cn3nnc(C(N)=O)c3N)cc2Cl)cc1 [ae] | ~10 | ~2 |  |
| Nc1c(C(=O)O)nnn1Cc1ccccc1NC(=O)c1ccc(OC(F)(F)F)cc1 [be] | > 10 | ~0 |  |
| O=C(c1ccc(Cl)cc1)c1c(Cl)cc(Cn2cc(CO)nn2)cc1Cl [av] | > 10 | ~0 |  |
| C=CCNC(=O)c1nnn(Cc2cc(Cl)c(C(=O)c3ccc(C(F)(F)F)cc3)c(Cl)c2)c1N [ak] | > 10 | ~0 |  |
| NC(=O)c1nnn(Cc2cc(Cl)cc(Cl)c2)c1N [aq] | > 10 | ~0 |  |
| Cc1ccc(C(=O)c2c(Cl)cc(Cn3nnc(C(N)=O)c3N)cc2Cl)cc1 [ac] | ~10 | ~2 |  |
| Cc1nc(-c2nc(-c3ccc(OC(F)(F)F)cc3)no2)nn1Cc1cccc(N2CCC(S(C)(=O)=O)CC2)c1 [IACS-010759, reference compound] |  |  | concentration giving the same extent of maximal OCR inhibition (mitochondrial complex I): 100 nM; increase in extracellular acidification rate (ECAR) (intact CT26 cancer cells; non-permeabilized CT26 cells, 100 nM): +29 ± 9% |
| NC(=O)c1cn(Cc2cc(F)c(C(=O)c3ccc(Cl)cc3)c(F)c2)nn1 [aw] | > 10 | ~0 |  |
| Nc1c(C(=O)O)nnn1Cc1ccccc1N1CCSCC1 [bf] | > 10 | ~0 |  |
| CC(C)(C)OC(=O)N1CCC(Nc2cccc(Cn3nnc(C(=O)O)c3N)c2)CC1 [bc] | > 10 | ~0 |  |
| NC(=O)c1nnn(Cc2cc(Cl)c(C(=O)c3ccc4ccccc4c3)c(Cl)c2)c1N [ah] | ~10 | ~2 | pattern of OCR inhibition activity relative to aa (mitochondrial complex I; 1 and 10 µM): hypoactive |
| CC(=O)c1c(Cl)cc(Cn2nnc(C(N)=O)c2N)cc1Cl [ao] | > 10 | ~2 | significant inhibition of complex I (mitochondrial complex I): did not show significant inhibition of complex I |
